Consider two compounds from BindingDB's records for doi:10.1021/acsmedchemlett.7b00140 (Pfizer, 2017).

What is called pEC50 is the negative decadic logarithm of the EC50, by convention in mol/L.

In the test the target is Small conductance calcium-activated potassium channel protein 2, KCNN2 (Homo sapiens) (UniProt Q9H2S1). The test is described as follows: Binding affinity to SK2 (unknown origin).

pEC50: −log10 of the molar value. Some results are limits rather than exact numbers.

Small conductance calcium-activated potassium channel protein 2, KCNN2 (Homo sapiens), sequence (Q9H2S1 whole entry, looked up): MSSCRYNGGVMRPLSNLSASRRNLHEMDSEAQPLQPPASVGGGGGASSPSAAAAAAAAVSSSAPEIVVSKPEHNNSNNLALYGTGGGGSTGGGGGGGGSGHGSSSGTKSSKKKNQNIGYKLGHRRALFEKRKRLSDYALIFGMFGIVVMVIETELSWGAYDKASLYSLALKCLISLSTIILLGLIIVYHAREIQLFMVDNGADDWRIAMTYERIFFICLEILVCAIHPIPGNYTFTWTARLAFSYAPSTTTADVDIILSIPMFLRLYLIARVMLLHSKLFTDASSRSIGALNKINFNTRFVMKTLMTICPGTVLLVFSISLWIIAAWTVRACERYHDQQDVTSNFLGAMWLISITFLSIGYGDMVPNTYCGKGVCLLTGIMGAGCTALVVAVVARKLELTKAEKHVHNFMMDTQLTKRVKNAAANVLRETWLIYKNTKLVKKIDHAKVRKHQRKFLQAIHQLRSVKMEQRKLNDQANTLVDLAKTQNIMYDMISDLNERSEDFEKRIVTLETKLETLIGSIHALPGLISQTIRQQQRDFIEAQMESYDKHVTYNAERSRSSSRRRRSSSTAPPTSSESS

As for `FC(F)(F)c1ccc2c(Nc3ccc(Cl)nc3)n[nH]c2c1`, the pEC50 is below 5.00.

For `N#Cc1ccc(-c2n[nH]c3cc(OC(F)(F)F)ccc23)cc1`, the pEC50 was below 5.00.
